Data set [1] deals with healthy volunteers. The settings on record: humans, cited from earlier work.
Data set [2] deals with animals suffering from the effects of iodine toxicity. The conditions noted are these: animals (chicks) with iodine toxicity; cited from earlier work.
For data set [3], the system named is symptoms caused by depression. As to the kind of experiment: Self-administration of iodinated activated charcoal and its separate components by one patient with long-standing depression symptoms, with daily symptom recording and a Quality of life questionnaire. It is filed as in vivo, human. The conditions noted are these: 90 mg daily in a capsule, after 2 weeks. The protocol: A person, has for some 20 years suffered from many symptoms, including chronic and severe mental fatigue in spite of 12 h sleep per night, psychological burnout, anxiety, lack of concentration, depressive mood, withdrawal from social situations, irritable bowel symptoms with constipation and/or diarrhea, anxiety, heart palpitations, pressure in the chest, reduced stamina and condition and a reduced sex drive. When asked to evaluate their subjective health status using a Quality of life questionnaire with a 1-10 scale where 1 is the worst possible and 10 is absolutely the best, they regularly marked 1 or 2. Their symptoms were interpreted as caused by depression, and they were treated with 5 different types of anti-depressants for a total of 17 years.
Some time ago, they tested the mercury binding substance iodinated activated charcoal (IAC, custom made at PharmaLundensis according to Example 1). They took 1 g per day of IAC for two weeks, and recorded the symptoms they experienced daily, as well as filling in a Quality of life questionnaire. […] They felt better than they had felt for many years.
After these two weeks, they wanted to clarify if the massive improvement in their health was caused by the IAC. […]

`[Br-].[Na+]` [Sodium bromide, sodium bromide]: in data set [1] (healthy volunteers), the no-effect level is listed as 4 mg/kg body weight. The tolerability entry in data set [1] is listed as “well tolerated”. The “effect on symptoms of iodine toxicity” value in data set [2] is listed as “helps to reverse the symptoms”.

As to `II` [elemental iodine], in data set [3], the “Quality of life score” value was “as bad as when they started taking the iodine capsules” and the improvement of symptoms result is “no improvements”.

(Values after patent US20130209581A1, “IODINATED ACTIVATED CHARCOAL FOR TREATING SYMPTOMS OF DEPRESSION” (priority 2010, published 2013).)
